Like-named read-outs stand apart in the source and are kept apart here. Numbered stars: 1 amine (or outer) side, 2 acyl side, 3 side chain; on linkers, the order of the positions; unused ones are H or OH. Square brackets hold non-standard residues; d marks the D form. Side chains are listed from the residue outwards. Peptide text beside a SMILES is read from it. * marks the point of attachment. γGlu = O=C(O)[C@H](CCC(=O)[*:2])N[*:1]; Palmitoyl = CCCCCCCCCCCCCCCC(=O)*; αMeF = C[C@](N)(Cc1ccccc1)C(=O)O; αMeK = C[C@](N)(CCCCN)C(=O)O; Lauroyl = CCCCCCCCCCCC(=O)*; αMeS = C[C@](N)(CO)C(=O)O; AEEA = NCCOCCOCC(=O)O; Aib = CC(C)(N)C(=O)O
What was measured:
Type in all cases: cell-based
[1] = biological target: T1, human glucose-dependent insulinotropic peptide receptor (GIPR) (Homo sapiens, UniProt P48546); assay: cAMP assay, human GIPR cells; conditions: cAMP assay
T1 construct: expressed in transfected cells
T1 sequence (P48546 22-466): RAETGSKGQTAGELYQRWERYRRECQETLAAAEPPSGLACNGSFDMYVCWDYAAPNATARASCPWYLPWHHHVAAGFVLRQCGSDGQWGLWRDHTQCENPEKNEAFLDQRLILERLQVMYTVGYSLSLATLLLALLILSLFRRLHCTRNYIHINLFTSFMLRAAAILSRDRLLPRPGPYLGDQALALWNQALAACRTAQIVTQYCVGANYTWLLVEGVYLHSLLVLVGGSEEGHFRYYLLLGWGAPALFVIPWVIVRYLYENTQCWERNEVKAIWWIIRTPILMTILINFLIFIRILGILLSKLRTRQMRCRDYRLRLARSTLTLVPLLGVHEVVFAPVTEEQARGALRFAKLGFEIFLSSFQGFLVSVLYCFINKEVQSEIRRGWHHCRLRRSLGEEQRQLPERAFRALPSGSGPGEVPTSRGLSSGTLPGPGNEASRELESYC
Experimental: (§1) Sample dilutions are made in duplicate.
(§2) A frozen cryo-vial of cells expressing the receptor of interest is thawed rapidly in a water-bath, transferred to pre-warmed assay buffer and spun at 240×g for 5 minutes. Cells are re-suspended in assay buffer at a batch-dependent optimized concentration (e.g. hGCGR cells at 2×10^5 cells/ml, hGLP-1R and hGIPR cells at 1×10^5 cells/ml).
(§3) To this, 5 μL cell suspension is added and the plates incubated at room temperature for 30 minutes.
(§4) cAMP levels are measured using a commercially available cAMP dynamic 2 HTRF kit (Cisbio, Cat #62AM4PEJ), following the two step protocol as per manufacturer's recommendations. In brief; anti-cAMP cryptate (donor fluorophore) and cAMP-d2 (acceptor fluorophore) are made up separately by diluting each 1/20 in conjugate & lysis buffer provided in the kit. 5 μL anti-cAMP cryptate is added to wells of the assay plate, and 5 μL cAMP-d2 is added to wells except non-specific binding (NSB) wells, to which conjugate and lysis buffer are added. […] EC50 values of the synthetic peptides determined in cAMP assays are then determined.
(§5) Data is transformed to % Delta F as described in the manufacturer's guidelines and analyzed by 4-parameter logistic fit to determine EC50 values. […] To compare the balance of activities at the GLP-1R and GCGR between different peptides and across different conditions, these can be correlated, where the EC50's are related to those of comparator peptides.

[2] = biological target: T2, human glucagon receptor (GCGR) (Homo sapiens, UniProt P47871); assay: cAMP assay, human GCGR cells; conditions: cAMP assay
T2 construct: expressed in transfected cells
T2 sequence (P47871 26-477): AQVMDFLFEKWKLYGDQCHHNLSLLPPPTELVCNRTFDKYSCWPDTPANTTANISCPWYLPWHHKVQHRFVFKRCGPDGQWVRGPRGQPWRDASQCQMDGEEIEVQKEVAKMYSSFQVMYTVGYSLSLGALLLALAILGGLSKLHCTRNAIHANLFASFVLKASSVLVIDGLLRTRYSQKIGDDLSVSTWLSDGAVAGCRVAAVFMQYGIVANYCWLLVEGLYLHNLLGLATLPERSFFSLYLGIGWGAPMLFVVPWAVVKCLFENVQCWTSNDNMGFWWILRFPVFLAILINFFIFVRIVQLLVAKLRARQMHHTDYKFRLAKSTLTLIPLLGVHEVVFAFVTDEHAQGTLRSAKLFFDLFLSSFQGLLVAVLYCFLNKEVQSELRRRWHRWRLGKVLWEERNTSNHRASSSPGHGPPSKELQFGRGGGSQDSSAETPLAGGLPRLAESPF
Experimental: as §1, §2, §3, §4, §5

[3] = biological target: T3, human GLP-1 receptor (GLP-1R) (Homo sapiens, UniProt P43220); assay: cAMP assay, human GLP-1R cells; conditions: bis-lipidated peptides
T3 construct: expressed in transfected cells
T3 sequence (P43220 24-463): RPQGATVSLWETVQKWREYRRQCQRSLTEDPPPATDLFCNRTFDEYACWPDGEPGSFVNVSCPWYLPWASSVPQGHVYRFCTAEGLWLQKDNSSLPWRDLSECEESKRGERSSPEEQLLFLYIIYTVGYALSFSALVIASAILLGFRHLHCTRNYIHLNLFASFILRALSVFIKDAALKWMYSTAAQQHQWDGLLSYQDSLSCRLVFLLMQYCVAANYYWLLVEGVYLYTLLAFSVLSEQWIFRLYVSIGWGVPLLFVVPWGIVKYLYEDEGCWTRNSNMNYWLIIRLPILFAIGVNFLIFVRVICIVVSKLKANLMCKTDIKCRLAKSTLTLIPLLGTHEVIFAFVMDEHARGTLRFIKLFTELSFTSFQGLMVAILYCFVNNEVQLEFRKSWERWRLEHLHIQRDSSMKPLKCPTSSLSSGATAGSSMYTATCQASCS
Experimental: as §1, §2, §3, §4, §5

[4] = first determination (n1), read-out: Primary assay EC50 GIP-R (n1)
[5] = second determination (n2), read-out: Primary assay EC50 GIP-R (n2)
[6] = first determination (n1), read-out: Primary assay EC50 Gluc-R (n1)
[7] = second determination (n2), read-out: Primary assay EC50 Gluc-R (n2)
[8] = mean of n1 and n2, read-out: Primary assay EC50 Mean pM GLP-1R
[9] = replicate n1, read-out: Primary assay EC50 GLP-1R n1
[10] = replicate n2, read-out: Primary assay EC50 GLP-1R n2

| EC50 [1, 4] | EC50 [1, 5] | EC50 [2, 6] | EC50 [2, 7] | EC50 [3, 8] | EC50 [3, 9] | EC50 [3, 10] | Compound |
| --- | --- | --- | --- | --- | --- | --- | --- |
| ≥ 100 nM | ≥ 100 nM | ≥ 100 nM | ≥ 100 nM |  |  |  | CC[C@H](C)[C@H](NC(=O)[C@](C)(Cc1ccccc1)NC(=O)[C@H](CCC(=O)O)NC(=O)[C@](C)(CCCCN)NC(=O)[C@H](C)NC(=O)[C@H](C)NC(=O)[C@H](CCC(=O)O)NC(=O)CNC(=O)[C@H](CCC(=O)O)NC(=O)[C@H](CC(C)C)NC(=O)[C@](C)(Cc1ccccc1)NC(=O)[C@H](CO)NC(=O)[C@](C)(CO)NC(=O)[C@@H](NC(=O)[C@H](CC(=O)O)NC(=O)[C@@H](NC(=O)[C@@H](NC(=O)[C@](C)(Cc1ccccc1)NC(=O)[C@H](CO)NC(=O)CNC(=O)[C@H](CCC(=O)O)NC(=O)C(C)(C)NC(=O)[C@@H](N)Cc1c[nH]cn1)[C@@H](C)O)[C@@H](C)O)C(C)C)C(=O)N[C@@H](C)C(=O)N[C@@](C)(Cc1ccccc1)C(=O)N[C@H](C(=O)N[C@H](C(=O)N[C@@](C)(CCCCN)C(=O)NCC(=O)NCC(N)=O)C(C)C)C(C)C [compound 29] (H-H[Aib]EGS[αMeF]TTDV[αMeS]S[αMeF]LEGEAA[αMeK]E[αMeF]IA[αMeF]VV[αMeK]GG-NH2) |
| ≥ 340 nM | ≥ 340 nM | ≥ 340 nM | ≥ 340 nM |  |  |  | CC[C@H](C)[C@H](NC(=O)[C@H](Cc1ccccc1)NC(=O)[C@H](CCC(=O)O)NC(=O)[C@H](CCCCN)NC(=O)[C@H](C)NC(=O)[C@H](C)NC(=O)[C@H](CCC(N)=O)NC(=O)CNC(=O)[C@H](CCC(=O)O)NC(=O)[C@H](CC(C)C)NC(=O)[C@H](Cc1ccc(O)cc1)NC(=O)[C@H](CO)NC(=O)[C@](C)(CO)NC(=O)[C@@H](NC(=O)[C@H](CC(=O)O)NC(=O)[C@H](CO)NC(=O)[C@@H](NC(=O)[C@H](Cc1ccccc1)NC(=O)[C@@H](NC(=O)CNC(=O)[C@H](CCC(=O)O)NC(=O)C(C)(C)NC(=O)[C@@H](N)Cc1c[nH]cn1)[C@@H](C)O)[C@@H](C)O)C(C)C)C(=O)N[C@@H](C)C(=O)N[C@@H](Cc1c[nH]c2ccccc12)C(=O)N[C@@H](CC(C)C)C(=O)N[C@H](C(=O)N[C@@H](CCCCN)C(=O)NCC(=O)N[C@@H](CCCNC(=N)N)C(N)=O)C(C)C [compound 21] |
| ≥ 31 nM | ≥ 31 nM | ≥ 31 nM | ≥ 31 nM |  |  |  | CC[C@H](C)[C@H](NC(=O)[C@](C)(Cc1ccccc1)NC(=O)[C@H](CCC(=O)O)NC(=O)[C@H](CCC(=O)O)NC(=O)[C@H](C)NC(=O)[C@H](C)NC(=O)[C@H](CCC(=O)O)NC(=O)CNC(=O)[C@H](CCC(=O)O)NC(=O)[C@H](CC(C)C)NC(=O)[C@](C)(Cc1ccccc1)NC(=O)[C@H](CO)NC(=O)[C@](C)(CO)NC(=O)[C@@H](NC(=O)[C@H](CC(=O)O)NC(=O)[C@H](CO)NC(=O)[C@@H](NC(=O)[C@](C)(Cc1ccccc1)NC(=O)[C@H](CO)NC(=O)CNC(=O)[C@H](CCC(=O)O)NC(=O)C(C)(C)NC(=O)[C@@H](N)Cc1c[nH]cn1)[C@@H](C)O)C(C)C)C(=O)N[C@@H](C)C(=O)N[C@@](C)(Cc1ccccc1)C(=O)N[C@H](C(=O)N[C@H](C(=O)N[C@@H](CCC(=O)O)C(=O)NCC(=O)NCC(N)=O)C(C)C)C(C)C [compound 44] (H-H[Aib]EGS[αMeF]TSDV[αMeS]S[αMeF]LEGEAAEE[αMeF]IA[αMeF]VVEGG-NH2) |
| ≥ 28 nM | ≥ 28 nM | ≥ 28 nM | ≥ 28 nM |  |  |  | CCCCCCCCCCCCCCCC(=O)N[C@@H](CCC(=O)NCCCC[C@H](NC(=O)[C@](C)(Cc1ccccc1)NC(=O)[C@H](CCC(=O)O)NC(=O)[C@](C)(CCCCN)NC(=O)[C@H](C)NC(=O)[C@H](C)NC(=O)[C@H](CCC(=O)O)NC(=O)CNC(=O)[C@H](CCC(=O)O)NC(=O)[C@H](CC(C)C)NC(=O)[C@](C)(Cc1ccccc1)NC(=O)[C@H](CO)NC(=O)[C@](C)(CO)NC(=O)[C@@H](NC(=O)[C@H](CC(=O)O)NC(=O)[C@H](CO)NC(=O)[C@@H](NC(=O)[C@](C)(Cc1ccccc1)NC(=O)[C@H](CO)NC(=O)CNC(=O)[C@H](CCC(=O)O)NC(=O)C(C)(C)NC(=O)[C@@H](N)Cc1c[nH]cn1)[C@@H](C)O)C(C)C)C(=O)N[C@@H](C)C(=O)N[C@@](C)(Cc1ccccc1)C(=O)N[C@H](C(=O)N[C@H](C(=O)N[C@@](C)(CCCCN)C(=O)NCC(=O)NCC(N)=O)C(C)C)C(C)C)C(=O)O [compound 77] (H-H[Aib]EGS[αMeF]TSDV[αMeS]S[αMeF]LEGEAA[αMeK]E[αMeF]K([γGlu-Palmitoyl])A[αMeF]VV[αMeK]GG-NH2) |
| ≥ 27 nM | ≥ 27 nM | ≥ 27 nM | ≥ 27 nM |  |  |  | CC[C@H](C)[C@H](NC(=O)[C@](C)(Cc1ccccc1)NC(=O)[C@H](CCC(=O)O)NC(=O)[C@H](CCCCNC(=O)CC[C@H](NC(=O)CC[C@H](NC(=O)CCCCCCCCCCCCCCCCC(=O)O)C(=O)O)C(=O)O)NC(=O)[C@H](C)NC(=O)[C@H](C)NC(=O)[C@H](CCC(=O)O)NC(=O)CNC(=O)[C@H](CCC(=O)O)NC(=O)[C@H](CC(C)C)NC(=O)[C@](C)(Cc1ccccc1)NC(=O)[C@H](CO)NC(=O)[C@](C)(CO)NC(=O)[C@@H](NC(=O)[C@H](CC(=O)O)NC(=O)[C@H](CO)NC(=O)[C@@H](NC(=O)[C@](C)(Cc1ccccc1)NC(=O)[C@H](CO)NC(=O)CNC(=O)[C@H](CCC(=O)O)NC(=O)C(C)(C)NC(=O)[C@@H](N)Cc1c[nH]cn1)[C@@H](C)O)C(C)C)C(=O)N[C@@H](C)C(=O)N[C@@](C)(Cc1ccccc1)C(=O)N[C@H](C(=O)N[C@H](C(=O)N[C@@](C)(CCCCN)C(=O)NCC(=O)NCC(N)=O)C(C)C)C(C)C [compound 156] |
|  |  |  |  | 92.3 pM | 59.6 pM | 125 pM | CCCCCCCCCCCC(=O)N[C@@H](CCC(=O)NCCOCCOCC(=O)NCCOCCOCC(=O)NCCCC[C@H](NC(=O)[C@H](CC(=O)O)NC(=O)[C@H](CO)NC(=O)[C@@H](NC(=O)[C@](C)(Cc1ccccc1)NC(=O)[C@H](CO)NC(=O)CNC(=O)[C@H](CCC(=O)O)NC(=O)C(C)(C)NC(=O)[C@@H](N)Cc1c[nH]cn1)[C@@H](C)O)C(=O)N[C@@H](CO)C(=O)N[C@@H](CO)C(=O)N[C@@H](Cc1ccc(O)cc1)C(=O)N[C@@H](CC(C)C)C(=O)N[C@@H](CCC(=O)O)C(=O)NCC(=O)N[C@@H](CCC(=O)O)C(=O)N[C@@H](C)C(=O)N[C@@H](C)C(=O)N[C@@](C)(CCCCN)C(=O)N[C@@H](CCC(=O)O)C(=O)N[C@@H](Cc1ccccc1)C(=O)N[C@H](C(=O)N[C@@H](C)C(=O)N[C@@H](Cc1c[nH]c2ccccc12)C(=O)N[C@@H](CCCCNC(=O)COCCOCCNC(=O)COCCOCCNC(=O)CC[C@H](NC(=O)CCCCCCCCCCC)C(=O)O)C(=O)N[C@H](C(=O)N[C@@H](CCC(=O)O)C(=O)NCC(=O)NCC(N)=O)C(C)C)[C@@H](C)CC)C(=O)O [compound 258] (H-H[Aib]EGS[αMeF]TSDK([AEEA-AEEA-γGlu-Lauroyl])SSYLEGEAA[αMeK]EFIAWK([AEEA-AEEA-γGlu-Lauroyl])VEGG-NH2; N-terminus assumed) |
|  |  |  |  | 7.5 pM | 9.46 pM | 5.57 pM | CCCCCCCCCCCC(=O)N[C@@H](CCC(=O)NCCOCCOCC(=O)NCCOCCOCC(=O)NCCCC[C@H](NC(=O)[C@H](CC(=O)O)NC(=O)[C@H](CO)NC(=O)[C@@H](NC(=O)[C@](C)(Cc1ccccc1)NC(=O)[C@H](CO)NC(=O)CNC(=O)[C@H](CCC(=O)O)NC(=O)C(C)(C)NC(=O)[C@@H](N)Cc1c[nH]cn1)[C@@H](C)O)C(=O)N[C@@H](CO)C(=O)N[C@@H](CO)C(=O)N[C@@H](Cc1ccc(O)cc1)C(=O)N[C@@H](CC(C)C)C(=O)N[C@@H](CCC(=O)O)C(=O)NCC(=O)N[C@@H](CCC(=O)O)C(=O)N[C@@H](C)C(=O)N[C@@H](C)C(=O)N[C@@](C)(CCCCN)C(=O)N[C@@H](CCC(=O)O)C(=O)N[C@@H](Cc1ccccc1)C(=O)N[C@H](C(=O)N[C@@H](CCCCNC(=O)COCCOCCNC(=O)COCCOCCNC(=O)CC[C@H](NC(=O)CCCCCCCCCCC)C(=O)O)C(=O)N[C@@H](Cc1c[nH]c2ccccc12)C(=O)N[C@H](C(=O)N[C@H](C(=O)N[C@@H](CCC(=O)O)C(=O)NCC(=O)NCC(N)=O)C(C)C)C(C)C)[C@@H](C)CC)C(=O)O [compound 256] (H-H[Aib]EGS[αMeF]TSDK([AEEA-AEEA-γGlu-Lauroyl])SSYLEGEAA[αMeK]EFIK([AEEA-AEEA-γGlu-Lauroyl])WVVEGG-NH2) |

From patent US10414811B2, “Protease-resistant lipidated GLP-1 analogs” (MEDIMMUNE LIMITED, priority 2015, dated 2019)
